Like-named read-outs stand apart in the source and are kept apart here.
Target: T1, Chk1 (Homo sapiens, UniProt O14757)
T1 construct: purchased Upstate Biotechnology
T1 sequence (O14757 1-476): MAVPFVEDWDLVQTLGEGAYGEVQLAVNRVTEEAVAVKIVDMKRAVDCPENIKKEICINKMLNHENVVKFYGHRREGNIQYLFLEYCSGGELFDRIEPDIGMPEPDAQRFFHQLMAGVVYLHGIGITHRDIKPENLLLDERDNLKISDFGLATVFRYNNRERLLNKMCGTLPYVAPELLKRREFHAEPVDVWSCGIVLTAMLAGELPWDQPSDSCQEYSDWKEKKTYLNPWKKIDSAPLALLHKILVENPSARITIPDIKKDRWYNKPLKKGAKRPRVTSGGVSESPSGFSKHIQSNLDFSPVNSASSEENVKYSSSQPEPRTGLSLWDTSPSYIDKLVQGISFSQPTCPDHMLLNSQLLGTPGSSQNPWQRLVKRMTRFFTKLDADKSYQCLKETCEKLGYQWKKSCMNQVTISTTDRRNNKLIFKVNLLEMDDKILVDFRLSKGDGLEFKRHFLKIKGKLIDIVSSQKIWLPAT
Assay: Chk1 kinase assay: incorporation of γ-33P ATP into immobilized myelin basic protein
Assay type: biochemical
Conditions: read-out: Chk1 IC50
Outline: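 MBP coated on plates (20 μg/ml) was phosphorylated by Chk1 (10 nM) or Chk2 (20 nM) with γ-33P ATP plus 10 μM (Chk1) or 30 μM (Chk2) unlabeled ATP, 1 h at room temperature, 1% DMSO. Bound radioactivity was counted by scintillation after washing; IC50 or Ki derived from fitted rate data.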

[1] = Table 11, Chk1 only, class symbols A-D

Row | SMILES | IC50 (Table 11, Chk1 only) [µM] | IC50 [1] [µM]
1 | Nc1ncc(-c2cccc(C(=O)N[C@@H]3c4ccccc4C[C@@H]3O)c2)nc1C(=O)NC1CCCNCC1 (stereo partly drawn) [Example 782, 3-amino-N-azepan-4-yl-6-[3-({[(1R,2S)-2-hydroxy-2,3-dihydro-1H-inden-1-yl]amino}carbonyl)phenyl]pyrazine-2-carboxamide] | < 0.05 | –
2 | Nc1ncc(-c2cccc(C3=N[C@@H]4c5ccccc5C[C@@H]4O3)c2)nc1C(=O)NC1CCCNCC1 (stereo partly drawn) [Example 783, 3-amino-N-azepan-4-yl-6-{3-[(3aR,8aS)-8,8a-dihydro-3aH-indeno[1,2-d][1,3]oxazol-2-yl]phenyl}pyrazine-2-carboxamide] | 0.05 to 1 | –
3 | Nc1ncc(-c2cccc(C(=O)N[C@H]3CCc4ccccc43)c2)nc1C(=O)NC[C@H]1CCNC1 [Example 785, 3-amino-6-(3-{[(1S)-2,3-dihydro-1H-inden-1-ylamino]carbonyl}phenyl)-N-[(3S)-pyrrolidin-3-ylmethyl]pyrazine-2-carboxamide] | < 0.05 | –
4 | CC(C)(C)OC(=O)N1CC[C@H](CNC(=O)c2nc(-c3cccc(C(=O)N[C@@H]4c5ccccc5C[C@@H]4O)c3)cnc2N)C1 [Example 786, 1,1-dimethylethyl (3R)-3-{[({3-amino-6-[3-({[(1R,2S)-2-hydroxy-2,3-dihydro-1H-inden-1-yl]amino}carbonyl)phenyl]pyrazin-2-yl}carbonyl)amino]methyl}pyrrolidine-1-carboxylate] | ≥ 10 | –
5 | Nc1ncc(-c2cccc(C(=O)N[C@@H]3c4ccccc4C[C@@H]3O)c2)nc1C(=O)NC[C@H]1CCNC1 [Example 787, 3-amino-6-[3-({[(1R,2S)-2-hydroxy-2,3-dihydro-1H-inden-1-yl]amino}carbonyl)phenyl]-N-[(3S)-pyrrolidin-3-ylmethyl]pyrazine-2-carboxamide] | < 0.05 | –
6 | CNC(=O)c1nc(-c2cc(F)cc(C(=O)N[C@H]3CCc4ccccc43)c2)cnc1N [Example 788, 3-amino-6-(3-{[(1S)-2,3-dihydro-1H-inden-1-ylamino]carbonyl}-5-fluorophenyl)-N-methylpyrazine-2-carboxamide] | 0.05 to 1 | –
7 | CNC(=O)c1nc(-c2cc(C(=O)O)cc(C(=O)OC)c2)cnc1N [Example 789, 3-{5-amino-6-[(methylamino)carbonyl]pyrazin-2-yl}-5-[(methyloxy)carbonyl]benzoic acid] | 1 to 10 | –
8 | CNC(=O)c1nc(-c2cc(C(=O)N[C@H]3CCc4ccccc43)cc(C(=O)OC)c2)cnc1N [Example 790, methyl 3-{5-amino-6-[(methylamino)carbonyl]pyrazin-2-yl}-5-{[(1S)-2,3-dihydro-1H-inden-1-ylamino]carbonyl}benzoate] | 0.05 to 1 | –
9 | CNC(=O)c1nc(-c2cc(C(=O)NC3CCNC3)cc(C(=O)N[C@H]3CCc4ccccc43)c2)cnc1N (stereo partly drawn) [Example 791, 5-{5-amino-6-[(methylamino)carbonyl]pyrazin-2-yl}-N-[(1S)-2,3-dihydro-1H-inden-1-yl]-N′-pyrrolidin-3-ylbenzene-1,3-dicarboxamide] | 0.05 to 1 | –
10 | Nc1ncc(-c2cccc(C(=O)NCc3ccccc3)c2)nc1-c1nc(-c2ccccc2)n(-c2ccccn2)n1 [Example 792, 3-[5-amino-6-(5-phenyl-1-pyridin-2-yl-1H-1,2,4-triazol-3-yl)pyrazin-2-yl]-N-(phenylmethyl)benzamide] | 1 to 10 | –
11 | Cc1nc(-c2nc(-c3cccc(C(=O)N[C@H]4CCc5ccccc54)c3)cnc2N)nn1-c1ccncc1 [Example 793, 3-[5-amino-6-(5-methyl-1-pyridin-4-yl-1H-1,2,4-triazol-3-yl)pyrazin-2-yl]-N-[(1S)-2,3-dihydro-1H-inden-1-yl]benzamide] | 1 to 10 | –
12 | CC(C)(C)OC(=O)N1CCC[C@@H](NC(=O)c2nc(-c3cccc(C(=O)N[C@H]4CCc5ccccc54)c3)cnc2N)C1 [Example 794, 1,1-dimethylethyl (3R)-3-({[3-amino-6-(3-{[(1S)-2,3-dihydro-1H-inden-1-ylamino]carbonyl}phenyl)pyrazin-2-yl]carbonyl}amino)piperidine-1-carboxylate] | 1 to 10 | –
13 | CC(C)(C)OC(=O)N1CCC[C@@H](NC(=O)c2nc(-c3cccc(C(=O)N[C@@H]4c5ccccc5C[C@@H]4O)c3)cnc2N)C1 [Example 795, 1,1-dimethylethyl (3R)-3-[({3-amino-6-[3-({[(1R,2S)-2-hydroxy-2,3-dihydro-1H-inden-1-yl]amino}carbonyl)phenyl]pyrazin-2-yl}carbonyl)amino]piperidine-1-carboxylate] | ≥ 10 | –
14 | CNC(=O)c1nc(-c2cc(C(=O)N[C@@H]3CCNC3)cc(C(=O)N[C@@H]3CCc4ccccc43)c2)cnc1N [Example 797, 5-{5-amino-6-[(methylamino)carbonyl]pyrazin-2-yl}-N-[(1R)-2,3-dihydro-1H-inden-1-yl]-N′-[(3R)-pyrrolidin-3-yl]benzene-1,3-dicarboxamide] | 0.05 to 1 | –
15 | Nc1cc(-c2n[nH]c(-c3nc(-c4cccc(CO)c4)cnc3N)n2)ccn1 [Example 798, (3-{5-amino-6-[3-(2-aminopyridin-4-yl)-1H-1,2,4-triazol-5-yl]pyrazin-2-yl}phenyl)methanol] | 0.05 to 1 | –
16 | Cc1nc(-c2nc(-c3cccc(C(=O)N[C@H]4CCc5ccccc54)c3)cnc2N)nn1C [Example 799, 3-[5-amino-6-(1,5-dimethyl-1H-1,2,4-triazol-3-yl)pyrazin-2-yl]-N-[(1S)-2,3-dihydro-1H-inden-1-yl]benzamide] | ≥ 10 | –
17 | CC(C)(C)OC(=O)N1CC[C@H](NC(=O)c2nc(-c3cccc(C(=O)NC(C)(C)c4ccccc4)c3)cnc2N)C1 [Example 800, 1,1-dimethylethyl (3S)-3-({[3-amino-6-(3-{[(1-methyl-1-phenylethyl)amino]carbonyl}phenyl)pyrazin-2-yl]carbonyl}amino)pyrrolidine-1-carboxylate] | ≥ 10 | –
18 | CC(C)(NC(=O)c1cccc(-c2cnc(N)c(C(=O)N[C@H]3CCNC3)n2)c1)c1ccccc1 [Example 801, 3-amino-6-(3-{[(1-methyl-1-phenylethyl)amino]carbonyl}phenyl)-N-[(3S)-pyrrolidin-3-yl]pyrazine-2-carboxamide] | 0.05 to 1 | –
19 | NC(=O)c1nc(-c2cccc(S(=O)(=O)N[C@H]3CCc4ccccc43)c2)cnc1N [Example 802, 3-amino-6-(3-{[(1S)-2,3-dihydro-1H-inden-1-ylamino]sulfonyl}phenyl)pyrazine-2-carboxamide] | 1 to 10 | –
20 | Nc1ncc(-c2cccc(S(=O)(=O)N[C@H]3CCc4ccccc43)c2)nc1C(=O)NC1CCCNC1 (stereo partly drawn) [Example 803, 3-amino-6-(3-{[(1S)-2,3-dihydro-1H-inden-1-ylamino]sulfonyl}phenyl)-N-piperidin-3-ylpyrazine-2-carboxamide] | 0.05 to 1 | –
21 | CN1CC[C@H](NC(=O)c2nc(-c3cccc(C(=O)N[C@H]4CCc5ccccc54)c3)cnc2N)C1 [Example 804, 3-amino-6-(3-{[(1S)-2,3-dihydro-1H-inden-1-ylamino]carbonyl}phenyl)-N-[(3S)-1-methylpyrrolidin-3-yl]pyrazine-2-carboxamide] | 0.05 to 1 | –
22 | CN1CC[C@H](NC(=O)c2nc(-c3cccc(C(=O)N[C@@H]4c5ccccc5C[C@@H]4O)c3)cnc2N)C1 [Example 805, 3-amino-6-[3-({[(1R,2S)-2-hydroxy-2,3-dihydro-1H-inden-1-yl]amino}carbonyl)phenyl]-N-[(3S)-1-methylpyrrolidin-3-yl]pyrazine-2-carboxamide] | – | 0.05 to 1
23 | Nc1ncc(-c2cccc(CN[C@@H]3c4ccccc4C[C@@H]3O)c2)nc1C(=O)N[C@H]1CCNC1 [Example 806, 3-amino-6-[3-({[(1R,2S)-2-hydroxy-2,3-dihydro-1H-inden-1-yl]amino}methyl)phenyl]-N-[(3S)-pyrrolidin-3-yl]pyrazine-2-carboxamide] | – | < 0.05
24 | Nc1ncc(-c2cccc(C(=O)N[C@@H]3c4ccccc4C[C@@H]3O)c2)nc1C(=O)N[C@H]1CCCNC1 [Example 807, 3-amino-6-[3-({[(1R,2S)-2-hydroxy-2,3-dihydro-1H-inden-1-yl]amino}carbonyl)phenyl]-N-[(3S)-piperidin-3-yl]pyrazine-2-carboxamide] | – | < 0.05
25 | Nc1ncc(-c2cccc(CN[C@H]3CCCc4ccccc43)c2)nc1C(=O)N[C@H]1CCNC1 [Example 808, 3-amino-N-[(3S)pyrrolidin-3-yl]-6-(3-{[(1S)-1,2,3,4-tetrahydronaphthalen-1-ylamino]methyl}phenyl)pyrazine-2-carboxamide] | – | < 0.05
26 | Nc1ncc(-c2cccc(NC(=O)Cc3ccc(Cl)cc3Cl)c2)nc1-c1nnc([C@H]2CCCNC2)[nH]1 [Example 809, N-[3-(5-amino-6-{5-[(3S)-piperidin-3-yl]-4H-1,2,4-triazol-3-yl}pyrazin-2-yl)phenyl]-2-(2,4-dichlorophenyl)acetamide] | – | < 0.05
27 | CC(C)(C)OC(=O)N1CC[C@H](NC(=O)c2nc(-c3cccc(S(=O)(=O)N[C@@H]4CCc5ccccc54)c3)cnc2N)C1 [Example 810, 1,1-dimethylethyl (3S)-3-({[3-amino-6-(3-{[(1R)-2,3-dihydro-1H-inden-1-ylamino]sulfonyl}phenyl)pyrazin-2-yl]carbonyl}amino)pyrrolidine-1-carboxylate] | – | ≥ 10
28 | Nc1ncc(-c2cccc(O)c2)nc1C(=O)N[C@H]1CCNC1 [Example 811, 3-amino-6-(3-hydroxyphenyl)-N-[(3S)-pyrrolidin-3-yl]pyrazine-2-carboxamide] | – | 0.05 to 1
